According to patent US11938133B2, “Stable pharmaceutical composition for oral administration” (ASTELLAS PHARMA INC., priority 2015, dated 2024):

What was measured:
[1] = Calculation of proportion of crystals by near-infrared spectroscopy; format: physicochemical; conditions: Compound A hemifumarate after water was added to the crystals and dried (material used for Examples 4 to 15)
Experimental: As a method of calculating the proportion of crystals of Compound A hemifumarate in Compound A hemifumarate, for example, the spectrum is measured, as a near-infrared spectroscopy measurement, by a Fourier transform near-infrared spectrometer (MPA, Bruker Optics K. K.)(measurement range; 12500 cm^−1 to 5800 cm^−1, resolution; 8 cm^−1, number of scans; 32), and the obtained spectrum is secondary-differentiated (Savitzky-Golay convolution method), and can be analyzed using a near-infrared spectrum analysis software (for example, OPUS, Bruker Optics K. K.). The pharmaceutical composition for oral administration is powdered using a mortar and pestle to measure the spectrum. Before the spectrum measurement of the pharmaceutical composition for oral administration, spectra of preparations, in which crystals of Compound A hemifumarate are mixed in various proportions, are regression-analyzed by a partial least square method to create a calibration curve, and each spectrum obtained from the pharmaceutical composition for oral administration is interpolated into the calibration curve to calculate the proportion of crystals of Compound A hemifumarate.
With respect to the tablets (film coated tablets) prepared in Comparative Example 1, Example 1, Example 2, and Example 3, the proportion of crystals of Compound A hemifumarate after production was calculated by near-infrared spectroscopy. […]

[2] = Stability of drug substance alone in heat and humidity (severity test or the like); format: physicochemical; conditions: certain storage conditions such as a severity test
[3] = tested on: EML4 (Echinoderm microtubule associated protein like-4)-ALK (Anaplastic lymphoma kinase) fusion protein; conditions: reported in Patent literature 1 (WO 2010/128659); cited from earlier work

Proportion of crystals [1] [%]	Stability of drug substance alone (in words) [2]	SMILES	Inhibitory activity of a kinase activity of EML4-ALK fusion protein [3]
62	stable in heat and humidity alone	CCc1nc(C(N)=O)c(Nc2ccc(N3CCC(N4CCN(C)CC4)CC3)c(OC)c2)nc1NC1CCOCC1 [Compound A hemifumarate]	–
–	–	CCc1nc(C(N)=O)c(Nc2ccc(N3CCC(N4CCN(C)CC4)CC3)c(OC)c2)nc1NC1CCOCC1 [Compound A, 6-Ethyl-3-({3-methoxy-4-[4-(4-methylpiperazin-1-yl)piperidin-1-yl]phenyl}amino)-5-(tetrahydro-2H-pyran-4-ylamino)pyrazine-2-carboxamide]	inhibitory activity
